This is an account of results in article PMC8306477, “Neuroprotective Effect of Terpenoids Recovered from Olive Oil By-Products” (Foods, 2021).

The structures appear in SMILES notation. Read-outs that look alike come from different tables or passages of the source. Marks after values point to notes of the source that are not given here.

Data set [1] in a line: PAMPA-BBB permeability of terpenes of SS adsorbate. It is filed as in vitro ADME. The procedure:
Previously, the BBB solution was prepared by dissolving 8 mg of PBL and 4 mg of cholesterol in 600 μL n-dodecane. Ethanolic olive leaves extract was dissolved in buffer (5 mM pH 7.4) as an initial solution at 10 mg/mL (EtOH/buffer, 1:1, v/v). Then, the filter membrane of the donor microplate was impregnated with 5 μL of BBB solution and the acceptor microplate was filled with 350 μL of buffer. Then, 200 μL of initial solution was added to the donor microplate which was assembled like a sandwich over the acceptor microplate. The microplate was incubated in the dark for 4 h at 37 °C and continuous agitation. After the incubation process, 200 μL were taken from each microplate, placed into a vial, dried, and reconstituted in 50 μL of EtOH to obtain donor and acceptor solutions. Both solutions were injected in the GC-qTOF-MS system to identify and compare the compounds present in both microplates. […] CD(t) is compound concentration in the donor well at time t and CA(t) is compound concentration in the acceptor well at time t.
A general note: PAMPA measures passive passage across an artificial lipid membrane.

Details of data set [2]: method as in PMID 23565574. The conditions noted are these: BBB permeability of pharmacological drugs; cited from earlier work.
The nature of data set [3]: ROS scavenging capacity, ORAC method. To be noted: mean ± SD (n = 3). On the procedure:
Oxygen radical absorbance capacity (ORAC) method was performed as reported by Ou et al. (2001). Briefly, 100 μL of the extract sample at different concentrations (5–50 μg/mL) in EtOH/H2O (1: 9, v/v), 100 μL of AAPH (590 mM) in PBS buffer (30 mM, pH = 7.5), 25 μL of fluorescein (10 μM) in PBS buffer, and 100 μL of PBS buffer were placed in a 96-well microplate. The fluorescence kinetic measurements were recorded at λexcitation = 485 nm and λemission = 530 nm at intervals of 5 min for a runtime of 60 min at 37 °C. Ascorbic acid was used as the reference standard. Each measurement was carried out in triplicate and the capacity of the extract for scavenging peroxyl radicals generated by spontaneous decomposition of AAPH was calculated through the inhibition percentage of the difference between the Area Under the Curve (AUC) of fluorescence decay in the presence (AUCsample) or absence (AUCcontrol) of the sample by Equation (4). (4) %Inh=AUCcontrol−AUCsample/AUCcontrol×100

A short description of data set [4]: ABTS•+ radical scavenging assay. The conditions noted are these: mean ± SD (n = 3); 45 min, 30 °C. On the procedure:
Antioxidant activity of all olive leaves extracts was measured using the ABTS^•+ radical scavenging assay according to Re et al., (1999) with modifications. […] After this time, radical ABTS^•+ solution was diluted with the buffer (5 mM, pH 7.4) to adjust the absorbance to 0.700 ± 0.002 measured at 734 nm wavelength and 30 °C. The 96-well microplate containing 250 μL ABTS^•+ solution and 100 μL of olive leaves extract at six different concentrations (from 14.3 to 143 μg/mL EtOH/H2O (1:1, v/v)) was incubated in the dark at 30 °C. After 45 min, the absorbance at 734 nm was measured. Trolox and ascorbic acid were used as reference standards while rosemary extract was used as natural reference standard. All measurements were performed in triplicate. ABTS^•+ inhibition percentage from olive leaves extracts was calculated as follows:(3) %Inh=AABTScontrol−(Asample−Asample blank)/AABTS control×100 where AABTScontrol is the absorbance of ABTS^•+ radical in buffer at t = 0 min; Asample, is the absorbance of an ABTS^•+ solution mixed with extracts; and Asample blank is the absorbance of samples without ABTS^•+.

Data set [5] in a line: RNS scavenging capacity, nitric oxide radical (Griess) assay. To be noted: NO• scavenging; mean ± SD (n = 3). The procedure: RNS was evaluated by the nitric oxide (NO^•) radical scavenging assay of OLE, according to Ho et al. (2010), based on the reaction of Griess. The 96-well microplate filling distribution was as follows: 100 μL of extract sample at different concentrations (250–2500 μg/mL) in EtOH/H2O (1:3, v/v), and 50 μL of SNP (5 mM) in buffer (30 mM pH = 7.5). The mixture was incubated at room temperature for 2 h under direct light. Nitrile ion concentration was measured at […] after the addition of […] Ascorbic acid was used as the reference standard. Each measurement was carried out in triplicate and the capacity of the extract for scavenging NO^• radicals was calculated through inhibition percentage as described in Equation (3).
On the technique in general: Griess reagent forms a coloured azo dye with nitrite.

Setting [6] is: terpene within Sea Sand Adsorbate, 4 h, 37 °C, buffer pH 7.4, GC-qTOF-MS, read-out: PAMPA-BBB Log Pe (RSD %) (converted).

In the case of `CC[C@H](CC[C@@H](C)[C@H]1CC[C@H]2[C@@H]3CC=C4C[C@@H](O)CC[C@]4(C)[C@H]3CC[C@]12C)C(C)C` [β-Sitosterol], in data set [1] (setting [6]), the Papp at 4 h is 0.912 ×10⁻⁶ cm/s. Same read-out and setting: in the case of `Cc1c(C)c2c(c(C)c1O)CC[C@@](C)(CCC[C@H](C)CCC[C@H](C)CCCC(C)C)O2` [α-Tocopherol] it was 1.15 ×10⁻⁶ cm/s. `CC1(C)CC[C@]2(C)CC[C@]3(C)C(=CC[C@@H]4[C@@]5(C)CC[C@H](O)C(C)(C)[C@@H]5CC[C@]43C)[C@@H]2C1` [β-Amyrin] gave a Papp at 4 h in data set [1] (pH 7.4) of 0.479 ×10⁻⁶ cm/s.

As to `COc1ccc2c3c1O[C@H]1C[C@@H](O)C=C[C@@]31CCN(C)C2` [Galantamine], in data set [2], the “log Pe ± SD” value is −5.35 ± 0.02 cm/s. As for `C[C@H]1[C@H](C)CC[C@]2(CO)CC[C@]3(C)C(=CC[C@@H]4[C@@]5(C)CC[C@H](O)C(C)(C)[C@@H]5CC[C@]43C)[C@H]12` [Uvaol], the Papp at 4 h in data set [1] (setting [6]) was 1.51 ×10⁻⁶ cm/s. In the case of `CC1(C)CC[C@]2(CO)CC[C@]3(C)C(=CC[C@@H]4[C@@]5(C)CC[C@H](O)C(C)(C)[C@@H]5CC[C@]43C)[C@@H]2C1` [Erythrodiol], in data set [1] (setting [6]), the Papp at 4 h was 0.575 ×10⁻⁶ cm/s. Still for that read-out and setting: with `Cc1c(O)cc2c(c1C)O[C@](C)(CCC[C@H](C)CCC[C@H](C)CCCC(C)C)CC2` [γ-Tocopherol] the figure was 8.91 ×10⁻⁶ cm/s. For `Cc1c(C)c2c(c(C)c1O)CCC(C)(C(=O)O)O2` (racemic) [Trolox, (±)-6-Hydroxy-2,5,7,8-tetramethylchromane-2-carboxylic acid], in data set [3], the “ROS IC50” value was 0.98 ± 0.11 ^c µg/mL. Further, the “Antioxidant Capacity by ABTS IC50” value in data set [4] is on record as 2.50 ± 0.02 ^r µg/mL. With `CC(C)=CCC/C(C)=C/CC/C(C)=C/CC/C=C(\C)CC/C=C(\C)CCC=C(C)C` [Squalene], in data set [1] (setting [6]), the Papp at 4 h was 13.2 ×10⁻⁶ cm/s. As for `O=C1O[C@H]([C@@H](O)CO)C(O)=C1O` [Ascorbic acid], the “ROS IC50” value in data set [3] was 1.29 ± 0.09 ^b µg/mL. Moreover, the “Antioxidant Capacity by ABTS IC50” value in data set [4] is given as 25.00 ± 0.30 ^a µg/mL. In addition, in data set [5], the “RNS IC50” value is given as 1100.90 ± 13.96 ^b µg/mL. For `O=c1c(O)c(-c2ccc(O)c(O)c2)oc2cc(O)cc(O)c12` [Quercetin], the “log Pe ± SD” value in data set [2] is recorded as −7.02 ± 0.08 cm/s.
